Results reported in PubChem BioAssay AID330 (DTP/NCI, 2004).
Values joined by “and” are separate entries in the source; they are usually repeats but may differ in a detail not shown here. Equal entries are not always repeated. Toxic doses and inconclusive results are not listed. How the source made its calls: active means survival T/C of 150% or more; inactive means T/C below 125% in these data.

Test system: P388 leukemia ip, CD2F1 mice, survival T/C
Assay: NCI In Vivo Anticancer Drug Screen. Data for tumor model P388 Leukemia (intraperitoneal) in CD2F1 (CDF1) mice
Conditions: endpoint: median survival time, higher = longer survival
Procedure, shortened: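 Mice carrying the transplanted tumor received test compound or vehicle. Survival was recorded in each group, and the value is the treated-group measurement divided by that of the vehicle-treated control group.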

[1] = dose: 25.0 mg/kg/injection, schedule: Q01DX005 (ip), vehicle: saline with Tween-80
[2] = dose: 50.0 mg/kg/injection, schedule: Q01DX005 (ip), vehicle: saline with Tween-80
[3] = dose: 100.0 mg/kg/injection, schedule: Q01DX005 (ip), vehicle: saline with Tween-80
[4] = dose: 6.25 mg/kg/injection, schedule: Q01DX005 (ip), vehicle: saline with Tween-80
[5] = dose: 12.5 mg/kg/injection, schedule: Q01DX005 (ip), vehicle: saline with Tween-80
[6] = dose: 200.0 mg/kg/injection, schedule: Q01DX005 (ip), vehicle: saline with Tween-80
[7] = dose: 60.0 mg/kg/injection, schedule: Q01DX005 (ip), vehicle: saline with Tween-80
[8] = dose: 120.0 mg/kg/injection, schedule: Q01DX005 (ip), vehicle: saline with Tween-80
[9] = dose: 240.0 mg/kg/injection, schedule: Q01DX005 (ip), vehicle: saline with Tween-80
[10] = dose: 50.0 mg/kg/injection, schedule: Q01DX005 (ip), vehicle: Klucel (hydroxypropylcellulose) (HPC)
[11] = dose: 100.0 mg/kg/injection, schedule: Q01DX005 (ip), vehicle: Klucel (hydroxypropylcellulose) (HPC)
[12] = dose: 200.0 mg/kg/injection, schedule: Q01DX005 (ip), vehicle: Klucel (hydroxypropylcellulose) (HPC)

Measured: T/C

O=[N+]([O-])c1ccc(N2CCN(c3ccccc3)CC2)c2nonc12
inactive: dose: 50.0 mg/kg/injection, schedule: Q01DX009 (ip), vehicle: suspension in saline 100 % of control | dose: 100.0 mg/kg/injection, schedule: Q01DX009 (ip), vehicle: suspension in saline 99 % of control | dose: 200.0 mg/kg/injection, schedule: Q01DX009 (ip), vehicle: suspension in saline 99 % of control and 100 % of control

O=S(O)OC1(O)CCCCC1
inactive: dose: 100.0 mg/kg/injection, schedule: Q04DX002 (ip), vehicle: saline 110 % of control | dose: 200.0 mg/kg/injection, schedule: Q04DX002 (ip), vehicle: saline 95 % of control | dose: 400.0 mg/kg/injection, schedule: Q04DX002 (ip), vehicle: saline 100 % of control

CN(C)c1ccnc2c1cnn2C1OC(CO)C(O)C1O (centres undefined)
inactive: [1] 97 % of control | [2] 108 % of control | [3] 106 % of control

CN(C)c1ccc(/C=C/C2=[N+](C)c3ccccc3C2(C)C)cc1
inactive: dose: 0.03 mg/kg/injection, schedule: Q01DX009 (ip), vehicle: saline 110 % of control | dose: 0.07 mg/kg/injection, schedule: Q01DX009 (ip), vehicle: saline 97 % of control

CCCCCCCC(=O)C1C(c2ccc(C(C)C)cc2)CC(=O)C(CCCCCC)C1c1ccc(C(C)C)cc1 (centres undefined)
inactive: [4] 91 % of control | [5] 89 % of control | [1] 99 % of control | [3] 93 % of control | [6] 98 % of control

[N-]=[N+]=Nc1ccc2nc(N)nc(N)c2c1
inactive: dose: 100.0 mg/kg/injection, schedule: Q01DX001 (ip), vehicle: Klucel (hydroxypropylcellulose) (HPC) 99 % of control | dose: 200.0 mg/kg/injection, schedule: Q01DX001 (ip), vehicle: Klucel (hydroxypropylcellulose) (HPC) 100 % of control

CCCn1c(O)c(C=N)c(=O)n(CCC)c1=O
inactive: dose: 100.0 mg/kg/injection, schedule: Q01DX009 (ip), vehicle: saline with Tween-80 95 % of control | dose: 200.0 mg/kg/injection, schedule: Q01DX009 (ip), vehicle: saline with Tween-80 100 % of control | dose: 400.0 mg/kg/injection, schedule: Q01DX009 (ip), vehicle: saline with Tween-80 100 % of control

Cc1cc2ncnn2cn1
inactive: dose: 100.0 mg/kg/injection, schedule: Q04DX003 (ip), vehicle: saline with Tween-80 99 % of control | dose: 200.0 mg/kg/injection, schedule: Q04DX003 (ip), vehicle: saline with Tween-80 99 % of control | dose: 400.0 mg/kg/injection, schedule: Q04DX003 (ip), vehicle: saline with Tween-80 93 % of control

O=C(/C=C/c1ccccc1)NC1C=Nc2ccccc2NC1=O (centres undefined)
inactive: [7] 92 % of control | [8] 92 % of control | [9] 99 % of control

O=C1NC(=O)C(=Cc2ccc([N+](=O)[O-])cc2)C(=O)N1
inactive: [10] 107 % of control | [11] 99 % of control | [12] 104 % of control

[Cl][Pt]([Cl])([Cl])[Cl].c1ccc2[nH]cnc2c1.c1ccc2[nH]cnc2c1
inactive: dose: 1.56 mg/kg/injection, schedule: Q01DX005 (ip), vehicle: saline with Tween-80 87 % of control | dose: 3.12 mg/kg/injection, schedule: Q01DX005 (ip), vehicle: saline with Tween-80 97 % of control | [4] 94 % of control | [2] 99 % of control and 96 % of control

N=C(N)n1ncc2c1CCC/C2=N/N=C(N)N
inactive: [7] 99 % of control | [8] 96 % of control | [9] 103 % of control

O=S(=O)(c1cccc(C(F)(F)F)c1)N(CCCCN(S(=O)(=O)c1cccc(C(F)(F)F)c1)S(=O)(=O)c1cccc(C(F)(F)F)c1)S(=O)(=O)c1cccc(C(F)(F)F)c1
inactive: [7] 97 % of control | [8] 93 % of control | [9] 90 % of control

N#CC1(c2ccccc2)C(c2ccccc2)=CC(=C2C(=O)NC(=O)N(c3ccccc3)C2=O)C=C1c1ccccc1 (centres undefined)
inactive: [10] 100 % of control | [11] 104 % of control | [12] 98 % of control

Cc1cc(OCCCCOc2ccc(C#N)cc2)ccc1[N+](=O)[O-]
inactive: [7] 96 % of control | [8] 90 % of control | [9] 88 % of control

Nc1nc(-c2cc(-c3ccco3)nc(N)n2)cc(-c2ccco2)n1
inactive: dose: 60.0 mg/kg/injection, schedule: Q01DX005 (ip), vehicle: saline 103 % of control | dose: 120.0 mg/kg/injection, schedule: Q01DX005 (ip), vehicle: saline 103 % of control | dose: 240.0 mg/kg/injection, schedule: Q01DX005 (ip), vehicle: saline 101 % of control

COc1cc([N+](=O)[O-])cc2c1OC1(C=C2)Oc2ccccc2N1C (centres undefined)
inactive: dose: 15.0 mg/kg/injection, schedule: Q01DX005 (ip), vehicle: Klucel (hydroxypropylcellulose) (HPC) 103 % of control | dose: 30.0 mg/kg/injection, schedule: Q01DX005 (ip), vehicle: Klucel (hydroxypropylcellulose) (HPC) 100 % of control | dose: 60.0 mg/kg/injection, schedule: Q01DX005 (ip), vehicle: Klucel (hydroxypropylcellulose) (HPC) 94 % of control | dose: 120.0 mg/kg/injection, schedule: Q01DX005 (ip), vehicle: Klucel (hydroxypropylcellulose) (HPC) 100 % of control

CC(c1ccc(N2Cc3ccccc3C2=O)cc1)C(O)C(N)=O (centres undefined)
inactive: [2] 89 % of control | [3] 92 % of control | [6] 89 % of control

CCC/C=C(/C=N/Nc1ccc([N+](=O)[O-])cc1[N+](=O)[O-])CC
inactive: [5] 97 % of control | [1] 109 % of control | [2] 91 % of control and 95 % of control
